Reference: patent publication US9951094B2, “Phosphole compound and fluorescent dye containing the same” (NATIONAL UNIVERSITY CORPORATION NAGOYA UNIVERSITY, priority 2014, dated 2018)

Experiments:
Type in all cases: physicochemical
[1] = Absolute fluorescence quantum yield in solvents; settings: apparatus C11347-01
Description: (§1) The optical properties of compounds 1 to 3, 6b to 6d, 7a, and 7b were evaluated. Ultraviolet-visible (UV-Vis) absorption and fluorescence spectra were measured with an UV-Vis-NIR spectrophotometer UV-3150 (Shimadzu) and a fluorescence spectrophotometer F-4500 (Hitachi), respectively. Absolute fluorescence quantum yield was determined with an absolute PL quantum yield measurement instruments C9920-02 or C11347-01 (Hamamatsu Photonics). Sample solutions of all the samples were prepared using spectral grade solvents purchased from Nacalai Tesque, and were each measured with a 1 cm square quartz cuvette. The concentrations of each sample for the measurement of UV-Vis absorption spectra were set for ca. 10^−5 M. The concentrations of each sample for the measurement of fluorescence spectra were adjusted in a range where concentration quenching would not occur. For the measurement of absolute fluorescence quantum yield, each sample solution was deaerated by purging with an argon gas stream for several minutes prior to the measurements. The orientation polarizabilities Δf of hexane, ethyl acetate, and methanol, which are not shown in the Tables, were −0.000518, 0.201, and 0.309, respectively.

[2] = Fluorescence spectra in solvents
Description: as §1

[3] = UV-Vis absorption spectra in solvents
Description: as §1

[4] = Photobleaching resistance, 403 nm laser irradiation of acetonitrile solutions; settings: acetonitrile solution, 403 nm laser light, 120 minutes; FIG. 2
Description: Solutions of compounds 1, 2 (6a), 6b, 7a, 7b, and a known fluorescent dye Alexa-430 each in acetonitrile were prepared so that their absorbances are in the range from 0.39 to 0.44. The concentration of each compound in the solution was 2.35×10^−5 M for compound 1, 2.17×10^−5 M for compound 2 (6a), 1.25×10^−5 M for compound 6b, 3.30×10^−5 M for compound 7a, and 2.04×10^−5 M for compound 7b. […] Immediately after preparation of each acetonitrile solution, the molar absorption coefficient of the acetonitrile solution was measured. Then, the molar absorption coefficient of the acetonitrile solution was measured after each of irradiations with 403 nm laser light for 20 minutes, 60 minutes, and 120 minutes, and the relative absorbance was determined relative to the molar absorption coefficient before laser light irradiation (immediately after preparation of the solution).

Row | SMILES | Fluorescence Quantum Yield φF ([1]; CH3CN) | Fluorescence Quantum Yield φF ([1]; EtOH) | Fluorescence Quantum Yield φF ([1]; cyclohexane) | Emission Maximum Wavelength λ em ([2]; CH3CN) | Emission Maximum Wavelength λ em ([2]; EtOH) | Emission Maximum Wavelength λ em ([2]; cyclohexane) | Absorption Maximum Wavelength λ max ([3]; CH3CN) | Molar Absorption Coefficient ϵ ([3]; CH3CN) | Absorption Maximum Wavelength λ max ([3]; EtOH) | Molar Absorption Coefficient ϵ ([3]; EtOH) | Absorption Maximum Wavelength λ max ([3]; cyclohexane) | Molar Absorption Coefficient ϵ ([3]; cyclohexane) | Resistance to photobleaching (relative absorbance) [4] | also measured
1 | O=P1(c2ccccc2)C(c2ccc(N(c3ccccc3)c3ccccc3)cc2)=Cc2cc3ccccc3cc21 (stereo not shown) [Compound 6b] | 0.80 | 0.79 | 0.90 | 563 nm | 550 nm | 450 nm | 405 nm | 3.25 10^4M^−1 cm^−1 | 413 nm | 2.67 10^4M^−1 cm^−1 | 409 nm | 4.17 10^4M^−1 cm^−1 | outstanding resistance to photobleaching | Fluorescence Quantum Yield φF ([1]; CH2Cl2): 0.95; Emission Maximum Wavelength λ em ([2]; CH2Cl2): 533 nm; Absorption Maximum Wavelength λ max ([3]; CH2Cl2): 414 nm; Molar Absorption Coefficient ϵ ([3]; CH2Cl2): 3.66 10^4M^−1 cm^−1
2 | O=P1(c2ccccc2)C2=C(c3ccccc31)C(c1ccccc1)(c1ccccc1)c1cc(N(c3ccccc3)c3ccccc3)ccc12 (stereo not shown) [Compound 7a] | 0.79 | 0.70 | 0.88 | 590 nm | 589 nm | 482 nm | 428 nm | 1.62 10^4M^−1 cm^−1 | 439 nm | 1.60 10^4M^−1 cm^−1 | 424 nm | 1.60 10^4M^−1 cm^−1 | outstanding resistance to photobleaching | Fluorescence Quantum Yield φF ([1]; ethyl acetate): 0.90; Emission Maximum Wavelength λ em ([2]; ethyl acetate): 540 nm; Absorption Maximum Wavelength λ max ([3]; ethyl acetate): 424 nm; Molar Absorption Coefficient ϵ ([3]; ethyl acetate): 1.61 10^4M^−1 cm^−1
